Entries after “also recorded” stand apart in the source; their conditions may differ.
Assays:
Type in all cases: cell-based, mouse
[1] = system: LPS-induced BV-2 cells; test: mRNA levels of M1/M2 biomarkers by qRT-PCR; conditions: FIG. 3; for mRNA expression of COX-2 induced by the LPS / mRNA level of IL-10: 10 μM / tested concentration; for mRNA expression of IL-6 induced by the LPS / mRNA level of ARG-1: 10 μM; for mRNA expression of TNF-α induced by the LPS: 1 at 10 μM; for mRNA level of IL-10 / mRNA level of ARG-1: M2 marker
Method: In order to detect the regulation of M1/M2 phenotype switch by 1 and 6, the effects on the mRNA expression of representative M1 and M2 biomarkers in the LPS-stimulated BV-2 cells were evaluated. The cells were incubated into a 6 cm of culture dish (5 mL/dish) at a density of 2×10^5 cfu, and cultured in a constant-temperature incubator of 5% CO2 at 37° C. for 12 h. According to the manufacturer's instructions, total RNA was extracted by Trizol, and concentration and purity thereof were measured by a UV-Vis spectrophotometer. 2 μg of isolated RNA was reversely transcribed into cDNA by Prime Script RTMaster Mix kit. By using a Syr Green quantitative RT-PCR kit, an mRNA level was evaluated by qRT-PCR response. β-actin was used as an internal standard. The primer sequences are as follows (Table 1).

[2] = system: LPS-induced BV-2 cells; test: M1/M2 marker cytokine secretion by ELISA; conditions: for production of IL-1β / production of IL-6 / production of IL-10 / production of TNF-α: 3 and 10 μM, 1 h pretreatment then LPS 24 h, effect enhanced as concentration increases, FIG. 4
Method: To further evaluate the role of 1 and 6 in M1 polarization of the LPS-induced microglia, the release of pro-inflammatory M1 cytokines (including TNF-α, IL-6 and IL-1β) and anti-inflammatory M2 cytokines (including IL-10) in the LPS-induced BV-2 cells was detected by ELISA. The BV-2 cells were incubated in a 6-well plate (2 mL/well) at a density of 2×10^5 cfu, cultured in a constant-temperature incubator of 5% CO2 at 37° C. for 24 h, then pretreated with different concentrations of compounds 1 and 6 (3 μM, 10 μM), LPS (1 μg/mL) and DMSO for 1 h, and then induced by the LPS for 24 h. Supernatant of the cell culture medium was collected, and the concentrations of TNF-α, IL-6, IL-10 and IL-1β were measured according to manufacturer's instructions.

[3] = system: LPS-induced BV-2 cells; test: M1/M2 marker protein expression by Western blotting; conditions: FIG. 5; for M1/M2 polarization of the LPS-induced BV-2 cells: conclusion from marker expression
Method: The protein expression of iNOS, COX-2(M1 marker) and ARG-1(M2 marker) was analyzed by Western blotting. The BV-2 cells (5×10^5 cfu) cultured in a 6 cm dish were pretreated with 1 or 6 ([…]) respectively for 1 h, and then 1 μg/ml LPS was added for 24 h. The cells were lysed in an ice-cold RIPA lysis buffer with a mixed solution of 10 mM of PMSF and 1% of protein inhibitors. The cytosol lysate was centrifuged at 4° C. at 12000 rpm for 30 minutes. Total protein was isolated from the lysate and their concentration was determined by BCA.
A sample was separated by 8%-12% SDS-PAGE and transferred to a […] PVDF membrane. The membrane was blocked with 5% BSA in TBST (20 mM of Tris-HCl, 150 mM of NaCl, 0.1% of Tween-20) for 1 h at room temperature, and then incubated with appropriate primary antibodies: anti-β-tubulin (1:1000), anti-GAPDH (1:1000), anti-iNOS (1:500), anti-COX-2 (1:1000) and anti-ARG-1 (1:500) at 4° C. overnight. The membrane was washed in the TBST for 3×5 minutes, and then incubated with the secondary antibody bound to appropriate peroxidase (HRP) and left at room temperature for 1 h. The blot was washed in the TBST for 3×5 minutes and exposed to an ECL chemiluminescence reagent. At last, the signal was detected by the Bio-Rad ChemiDoc XRS+ system.

[4] = system: LPS-induced BV-2 cells; test: Nuclear translocation of NF-κB subunit p65 by Western blotting; conditions: Western blot of nuclear and cytoplasmic parts
Source text: The nuclear translocation of NF-κB subunit p65 as an activation index of NF-κB is examined. The cells were collected in the same way for Western blotting. A extraction kit is configured to isolate and extract nuclear and cytoplasmic parts according to the instructions. The primary antibodies are anti-NF-κB p65 (1:1000), anti-Lamin B1 (1:1000) and anti-GAPDH (1:1000).

[5] = system: LPS-induced BV-2 microglia; test: MAPK phosphorylation (ERK1/2, JNK, p38 MAPK) by Western blotting; conditions: Western blot, 1 h pretreatment then LPS 1 μg/mL 30 min; FIG. 6
Method: Previous studies have shown that the over-activation of MAPK signaling cascade is related to neuroinflammatory reaction^[9-10]. In order to clarify the action mode of 6 in reversing the M1 polarization of the microglia, the effects of 6 on phosphorylation levels of ERK1/2, […] and p38 MAPK in the LPS-induced BV-2 microglia are further studied. BV-2 cells (5×10^5 cfu) cultured in a 6 cm dish are pretreated with compound 1 or 6 ([…]) respectively for 1 h, and then added with the LPS (1 μg/mL) for 30 min. The similar method is used by Western blotting, and the primary antibodies are: […] (1:1000), anti-GAPDH (1:1000), anti-ERK1/2 (1:1000), anti-phosphorylated ERK1/2 (1:1000), anti-p38 MAPK (1:2000), anti-phosphorylated p38 MAPK (1:1000), anti-JNK (1:2000) and anti-phosphorylated JNK (1:1000).

[6] = system: LPS-induced BV-2 microglia; test: Inhibition of nitric oxide (NO) production, Griess method; conditions: 1 μg/mL LPS + 10 μM compound, 24 h, FIG. 2
Method: The mouse microglia (BV-2) were cultured in the DMEM culture medium containing 10% of fetal bovine serum (FBS) and 1% of antibiotics (100 U/mL of […] and penicillin) at 37° C. in the incubator of 5% CO2.
NO is an important inflammatory mediator. Excessive production of NO is common in neurons and glial cells of brains with ND^[8]. Griess reagent was configured to evaluate the influence on NO production in order to measure the anti-inflammatory effects of sarcodonin A and its derivative in LPS-induced BV-2 microglia. Before adding the detection reagent, BV-2 cells (2×10^5/mL) were incubated in the 96-well plate and cultured at 37° C. for 24 h. The experimental groups were divided into a control group (DMSO), an LPS-treated group ([…] of LPS) and a compound-treated group (1 μg/mL of LPS+10 μM compound), and then incubation was performed for 24 h. The nitrite concentration in the culture medium was measured by a commercial analysis kit. The main principle was based on the griess method. Supernatant of the BV-2 cells (50 μL) reacted with the griess reagent (50 μL of griess regent I and 50 μL of griess regent II). The absorbance was measured at 540 nm on the Bio-Tek micropore plate reader, and the nitrite concentration was calculated by a nitrite standard curve with sodium nitrite as the standard.
The inhibition rate %=(ALPS−Acompound)/(ALPS−Ablank)×100;

[7] = Western blot, 1 h pretreatment then 1 μg/ml LPS 24 h

Row | Compound | mRNA expression of COX-2 induced by the LPS ([1]; M1 marker) | mRNA expression of IL-6 induced by the LPS ([1]; M1 marker) | mRNA expression of TNF-α induced by the LPS ([1]; M1 marker) | mRNA level of IL-10 [1] | mRNA level of ARG-1 [1] | production of IL-1β [2] | production of IL-6 [2] | production of IL-10 [2] | production of TNF-α [2] | protein expression of ARG-1 [3, 7] | protein expression of LPS-induced iNOS [3, 7] | M1/M2 polarization of the LPS-induced BV-2 cells [3] | inhibition of NO production (in words) [6] | further results
1 | CC(COC(=O)c1ccc(Br)cc1)C1=C2C3=CC=C(C=O)CC(O)C3(C)CCC2(C)CC1 (centres unmarked) [Compound 6] | inhibits | inhibits | inhibits | promotes | promotes | inhibitory effect | inhibitory effect | promoting effect | inhibitory effect | more obvious promoting effect | more obvious inhibitory effect | inhibit the M1 polarization and enhance M2 polarization | higher inhibitory activity; also recorded: strongest activity | mRNA expression of IL-1β induced by the LPS ([1]; M1 marker): inhibits; mRNA expression of iNOS induced by the LPS ([1]; M1 marker): inhibits; comparison of effect on cytokine production at the same concentration ([2]; IL-6, IL-1β, TNF-α, IL-10, FIG. 4): more effective than 1; protein expression of COX-2 [3, 7]: more obvious inhibitory effect; LPS-stimulated nuclear translocation of NF-κB p65 [4]: significantly inhibits; activation (phosphorylation) of ERK1/2 induced by the LPS [5]: significantly inhibits; activation (phosphorylation) of INK induced by the LPS [5]: significantly inhibits; phosphorylation of p38 MAPK [5]: little effect; inhibitory activity on NO production (inhibition rate) ([6]; compared with the LPS control group): 55%
2 | CC(COC(=O)c1ccccc1Br)C1=C2C3=CC=C(C=O)CC(O)C3(C)CCC2(C)CC1 (centres unmarked) [Compound 4] | – | – | – | – | – | – | – | – | – | – | – | – | higher inhibitory activity; also recorded: highest inhibitory activity in o-halogen-substituted 19-O-benzoyl derivatives | –
3 | CC(CO)C1=C2C3=CC=C(C=O)C[C@H](O)[C@]3(C)CC[C@@]2(C)CC1 (some centres unmarked) [Compound 1, sarcodonin A] | does not affect | inhibits | inhibits | does not affect | enhance | inhibitory effect | inhibitory effect | promoting effect | inhibitory effect | promotes | inhibits | inhibit the M1 polarization and enhance M2 polarization | can inhibit | –
4 | CC(COC(=O)c1ccccc1Cl)C1=C2C3=CC=C(C=O)CC(O)C3(C)CCC2(C)CC1 (centres unmarked) [Compound 3] | – | – | – | – | – | – | – | – | – | – | – | – | higher inhibitory activity | –
5 | CC(=O)OCC(C)C1=C2C3=CC=C(C=O)CC(OC(C)=O)C3(C)CCC2(C)CC1 (centres unmarked) [Compound 7] | – | – | – | – | – | – | – | – | – | – | – | – | strong inhibitory effect similar to that of 6 | –

Source: patent US20230227392A1, “A APPLICATION OF CYATHANE DITERPENOIDS IN PREPARATION OF DRUGS FOR TREATING NEUROINFLAMMATION” (Northwest A&F University, priority 2022, published 2023)
